The values that follow come from patent US11453690B2, “Receptor inhibitor, pharmaceutical composition comprising same, and use thereof” (BEIJING TIDE PHARMACEUTICAL CO., LTD., priority 2018, dated 2022).

Chain of AT2 Receptor (AT2R) (P50052 whole entry): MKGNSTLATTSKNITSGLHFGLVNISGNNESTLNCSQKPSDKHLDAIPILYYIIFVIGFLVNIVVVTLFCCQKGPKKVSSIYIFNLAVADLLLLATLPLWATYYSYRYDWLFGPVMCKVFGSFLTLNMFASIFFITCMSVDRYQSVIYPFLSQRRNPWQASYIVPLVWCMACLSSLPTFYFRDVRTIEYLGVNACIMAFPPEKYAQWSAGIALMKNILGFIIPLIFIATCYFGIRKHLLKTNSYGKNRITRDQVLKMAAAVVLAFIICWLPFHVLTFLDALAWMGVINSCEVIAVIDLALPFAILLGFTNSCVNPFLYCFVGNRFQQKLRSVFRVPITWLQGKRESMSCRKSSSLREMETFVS

In the assay the target is AT2 Receptor (AT2R) (Homo sapiens (Human), UniProt P50052). Kind of assay: Measurement of inhibitory activity on AT2 receptor (Tag-lite HTRF, Tb-labeled AT2R cells, angiotensin receptor red agonist). To be noted: 1 h room temperature. The class given is binding. As to the method:
Measurement of Inhibitory Activity on AT1 Receptor ([…])/AT2 Receptor (AT2R)
Through the following steps, the inhibitory activity of the compound on AT1R/AT2R (IC50 value) was determined:
1) An appropriate amount of 1×TLB (Tag-lite Buffer) was prepared and well mixed for use.
2) The compound was diluted by 10 times with ddH2O or DMSO. The compound was then dilute to 4 times of the working concentration with 1×TLB and mixed well for use.
3) 8600 nM Tag-lite angiotensin receptor red agonist was diluted to 12 nM (4×Kd) with 1×TLB.
4) 5 ml 1×TLB was taken into a 15 ml centrifuge tube.
5) After thawing 1 tube of Tb-labeled AT1R/AT2R cells in a 37° C. water bath, the cells were quickly transferred to the 1×TLB in step 4), mixed gently, and centrifuged at 1200 g for 5 minutes at room temperature.
6) The supernatant was aspirated gently, and the cells were resuspended and mixed in 2.7 ml 1×TLB, and then placed at room temperature until use.
7) 10 μl cells were added to all test wells, and 5 μl 4× working solution of the compound from step 2) was added to the corresponding test wells. 5 μl 4× Tag-lite angiotensin receptor red agonist well diluted in step 3) was added to all test wells.
8) After leaving the reaction plate at room temperature for 1 h, data were measured and analyzed using Envision HTRF Reader, and the half inhibitory concentration (IC50) of the compound on AT1R/AT2R was calculated with the GraphPad Prism four-parameter equation.
A general note: TR-FRET usually uses a lanthanide donor and a delayed reading to cut background.
For `Cc1ccccc1CN(C)C(=O)N1[C@H]2CC[C@@H]1[C@@H](C(=O)O)N(C(=O)N(c1ccccc1)c1ccccc1)C2` [Compound C163, (1R,2S,5S)-3-(diphenylcarbamoyl)-8-(methyl (2-methylbenzyl)carbamoyl)-3,8-diazabicyclo [3.2.1]octane-2-carboxylic acid], the IC50 (as a rule, the point on the concentration scale where inhibition reaches its midpoint) came to 0.0656 µM. `O=C(O)[C@H]1[C@@H]2CC[C@H](CN1C(=O)C(c1ccccc1)c1ccccc1)N2C(=O)OCc1ccccc1` [Compound C76, (1S,2R,5R)-8-((benzyloxy)carbonyl)-3-(2,2-diphenylacetyl)-3,8-diazabicyclo [3.2.1]octane-2-carboxylic acid] registered an IC50 of 0.0697 µM. The result for `C/C(=C\c1ccccc1)C(=O)N1[C@H]2CC[C@@H]1[C@@H](C(=O)O)N(C(=O)C(c1ccccc1)c1ccccc1)C2` [Compound C231, (1R,2S,5S)-3-(2,2-diphenylacetyl)-8-((E)-2-methyl-3-phenylacryloyl)-3,8-diazabicyclo [3.2.1]octane-2-carboxylic acid] reads 0.103 µM; that for `CC(C)c1ccc(CN(C)C(=O)N2[C@H]3CC[C@@H]2[C@@H](C(=O)O)N(C(=O)N(c2ccccc2)c2ccccc2)C3)cc1` [Compound C214, (1R,2S,5S)-3-(diphenylcarbamoyl)-8-((4-isopropylbenzyl) (methyl)carbamoyl)-3,8-diazabicyclo [3.2.1]octane-2-carboxylic acid], 0.0113 µM; that for `CC(c1ccccc1)N(C)C(=O)N1[C@H]2CC[C@@H]1[C@@H](C(=O)O)N(C(=O)N(c1ccccc1)c1ccccc1)C2` (stereo partly drawn) [Compound C225, (1R,2S,5S)-3-(diphenylcarbamoyl)-8-(methyl (1-phenylethyl)carbamoyl)-3,8-diazabicyclo [3.2.1]octane-2-carboxylic acid], 0.0117 µM. Take `C[C@H](c1ccccc1)N(C)C(=O)N1[C@H]2CC[C@@H]1[C@@H](C(=O)O)N(C(=O)N(c1ccccc1)c1ccccc1)C2` [Compound C226, (1R,2S,5S)-3-(diphenylcarbamoyl)-8-(methyl((R)-1-phenylethyl)carbamoyl)-3,8-diazabicyclo [3.2.1]octane-2-carboxylic acid]: the IC50 stood at 0.0127 µM. The IC50 values of the last two compounds are within 1.5-fold of each other. The result for `Cc1cc(CN(C)C(=O)N2[C@H]3CC[C@@H]2[C@@H](C(=O)O)N(C(=O)N(c2ccccc2)c2ccccc2)C3)cs1` [Compound C185] reads 0.0387 µM; that for `O=C(O)[C@@H]1[C@H]2CC[C@@H](CN1C(=O)Oc1ccccc1)N2C(=O)N(c1ccccc1)c1ccccc1` [Compound C69, (1R,2S,5S)-8-(diphenylcarbamoyl)-3-(phenoxycarbonyl)-3,8-diazabicyclo [3.2.1]octane-2-carboxylic acid], 0.17 µM; that for `C[C@@H](c1ccccc1)N(C)C(=O)N1[C@H]2CC[C@@H]1[C@@H](C(=O)O)N(C(=O)N(c1ccccc1)c1ccccc1)C2` [Compound C227, (1R,2S,5S)-3-(diphenylcarbamoyl)-8-(methyl ((S)-1-phenylethyl)carbamoyl)-3,8-diazabicyclo [3.2.1]octane-2-carboxylic acid], 0.0183 µM. The result for `O=C(O)[C@@H]1[C@H]2CC[C@@H](CN1C(=O)N(c1ccccc1)c1ccccc1)N2C(=O)C#Cc1ccccc1` [Compound C256, (1R,2S,5S)-3-(diphenylcarbamoyl)-8-(3-phenylpropioloyl)-3,8-diazabicyclo [3.2.1]octane-2-carboxylic acid] reads 0.04 µM; that for `CCN(Cc1ccsc1)C(=O)N1[C@H]2CC[C@@H]1[C@@H](C(=O)O)N(C(=O)C(c1ccccc1)c1ccccc1)C2` [Compound C188, (1R,2S,5S)-3-(2,2-diphenylacetyl)-8-(ethyl(thiophene-3-ylmethyl)carbamoyl)-3,8-diazabicyclo [3.2.1]octane-2-carboxylic acid], 0.00711 µM. `O=C(O)[C@@H]1[C@H]2CC[C@@H](CN1C(=O)C(c1ccccc1)c1ccccc1)N2C(=O)CCc1ccccc1` [Compound C222, (1R,2S,5S)-3-(2,2-diphenylacetyl)-8-(3-phenylpropionyl)-3,8-diazabicyclo [3.2.1]octane-2-carboxylic acid] gave an IC50 of 0.0117 µM. As for `O=C(O)[C@@H]1[C@H]2CC[C@@H](CN1C(=O)N(c1ccccc1)c1ccccc1)N2C(=O)CCc1ccccc1` [Compound C221, (1R,2S,5S)-3-(diphenylcarbamoyl)-8-(3-phenylpropionyl)-3,8-diazabicyclo [3.2.1]octane-2-carboxylic acid], the IC50 amounted to 0.0767 µM. This IC50 is about 6.6-fold higher than that of the compound before.

For the compound `CN(Cc1cccnc1)C(=O)N1[C@H]2CC[C@@H]1[C@@H](C(=O)O)N(C(=O)N(c1ccccc1)c1ccccc1)C2` [Compound C124, (1R,2S,5S)-3-(diphenylcarbamoyl)-8-(methyl(pyridine-3-ylmethyl)carbamoyl)-3,8-diazabicyclo [3.2.1]octane-2-carboxylic acid], the IC50 was determined as 0.0378 µM. As for `CN(C)S(=O)(=O)NC(=O)[C@@H]1[C@H]2CC[C@@H](CN1C(=O)C(c1ccccc1)c1ccccc1)N2C(=O)OCc1ccccc1` [Compound C233], the figure is 0.103 µM; as for `O=C(O)[C@@H]1[C@H]2CC[C@@H](CN1C(=O)N(c1ccccc1)c1ccccc1)N2C(=O)N(Cc1ccsc1)C1CC1` [Compound C196, (1R,2S,5S)-8-(cyclopropyl (thiophene-3-yl-methyl)carbamoyl)-3-(diphenylcarbamoyl)-3,8-diazabicyclo [3.2.1]octane-2-carboxylic acid], 0.00163 µM; as for `O=C(O)[C@@H]1[C@H]2CC[C@@H](CN1C(=O)N(c1ccccc1)c1ccccc1)N2C(=O)N(Cc1cccs1)C1CC1` [Compound C200, (1R,2S,5S)-8-(cyclopropyl (thiophene-2-ylmethyl)carbamoyl)-3-(diphenylcarbamoyl)-3,8-diazabicyclo [3.2.1]octane-2-carboxylic acid], 0.00325 µM.

For the compound `C=Cc1ccc(CN(C)C(=O)N2[C@H]3CC[C@@H]2[C@@H](C(=O)O)N(C(=O)N(c2ccccc2)c2ccccc2)C3)cc1` [Compound C170, (1R,2S,5S)-3-(diphenylcarbamoyl)-8-(methyl(4-vinylbenzyl)carbamoyl)-3,8-diazabicyclo[3.2.1] octane-2-carboxylic acid], the IC50 worked out at 0.00387 µM. Compound `O=C(O)[C@@H]1[C@H]2CC[C@@H](CN1C(=O)N(c1ccccc1)c1ccccc1)N2c1nccc(-c2ccccc2)n1` [Compound C210, (1R,2S,5S)-3-(diphenylcarbamoyl)-8-(4-phenylpyrimidine-2-yl)-3,8-diazabicyclo[3.2.1] octane-2-carboxylic acid] had an IC50 of 0.0495 µM. The compound `O=C(O)[C@H]1[C@@H]2CC[C@H](CN1C(=O)N(c1ccccc1)c1ccccc1)N2C(=O)N(c1ccccc1)c1ccccc1` [Compound C13, (1S,2R,5R)-3,8-bis (diphenylcarbamoyl)-3,8-diazabicyclo [3.2.1]octane-2-carboxylic acid] yielded an IC50 of 0.0222 µM. The result for `Cc1ccc([C@H]2CCCN2C(=O)N2[C@H]3CC[C@@H]2[C@@H](C(=O)O)N(C(=O)N(c2ccccc2)c2ccccc2)C3)cc1` [Compound C143, (1R,2S,5S)-3-(diphenylcarbamoyl)-8-((R)-2-(p-tolyl)pyrrolidine-1-carbonyl)-3,8-diazabicyclo [3.2.1]octane-2-carboxylic acid] reads 0.00997 µM. The result for `O=C(O)[C@@H]1[C@H]2CC[C@@H](CN1C(=O)N(c1ccccc1)c1ccccc1)N2C(=O)N(Cc1ccccc1)c1ccccc1` [Compound C134, (1R,2S,5S)-8-(benzyl(phenyl)carbamoyl)-3-(diphenylcarbamoyl)-3,8-diazabicyclo [3.2.1]octane-2-carboxylic acid] reads 0.322 µM; that for `CCN(Cc1cscn1)C(=O)N1[C@H]2CC[C@@H]1[C@@H](C(=O)O)N(C(=O)N(c1ccccc1)c1ccccc1)C2` [Compound C209, (1R,2S,5S)-3-(diphenylcarbamoyl)-8-(ethyl(thiazole-4-ylmethyl)carbamoyl)-3,8-diazabicyclo [3.2.1]octane-2-carboxylic acid], 0.0814 µM.

Take `C#Cc1ccc(CN(C)C(=O)N2[C@H]3CC[C@@H]2[C@@H](C(=O)O)N(C(=O)N(c2ccccc2)c2ccccc2)C3)cc1` [Compound C171, (1R,2S,5S)-3-(diphenylcarbamoyl)-8-((4-ethynylbenzyl) (methyl)carbamoyl)-3,8-diazabicyclo [3.2.1]octane-2-carboxylic acid]: the IC50 worked out at 0.0192 µM.

Regarding `CCN(Cc1ccccc1F)C(=O)N1[C@H]2CC[C@@H]1[C@@H](C(=O)O)N(C(=O)N(c1ccccc1)c1ccccc1)C2` [Compound C156, (1R,2S,5S)-3-(diphenylcarbamoyl)-8-(ethyl(2-fluorobenzyl)carbamoyl)-3,8-diazabicyclo [3.2.1]octane-2-carboxylic acid], the IC50 came out at 0.0101 µM. As for `CCN(Cc1cccs1)C(=O)N1[C@H]2CC[C@@H]1[C@@H](C(=O)O)N(C(=O)N(c1ccccc1)c1ccccc1)C2` [Compound C201, (1R,2S,5S)-3-(diphenylcarbamoyl)-8-(ethyl(thiophene-2-ylmethyl)carbamoyl)-3,8-diazabicyclo [3.2.1]octane-2-carboxylic acid], the figure is 0.0184 µM; as for `CN(Cc1ccsc1)C(=O)N1[C@H]2CC[C@@H]1[C@@H](C(=O)O)N(C(=O)C(c1ccccc1)c1ccccc1)C2` [Compound C187, (1R,2S,5S)-3-(2,2-diphenylacetyl)-8-(methyl(thiophene-3-ylmethyl)carbamoyl)-3,8-diazabicyclo [3.2.1]octane-2-carboxylic acid], 0.00375 µM.
